Experimental data as given in PubChem BioAssay (NCI).
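All cell lines were grown in 96-well plates and treated with compound for 48 hours. GI50 = concentration required for 50% inhibition of growth. TGI: total growth inhibition.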

Assays:
Experiment in all cases: inhibition of tumour cell growth, NCI panel, 48 h
[1] = system: A549 NSCLC
[2] = system: SNB-19 CNS
[3] = system: CCRF-CEM leukemia
[4] = system: SK-MEL-28 melanoma
[5] = system: KM12 colon
[6] = system: SK-MEL-2 melanoma
[7] = system: HCC-2998 colon
[8] = system: SK-MEL-5 melanoma
[9] = system: MCF7 breast
[10] = system: MDA-MB-435

SMILES	TGI [1] [µM]	TGI [2] [µM]	TGI [3] [µM]	TGI [4] [µM]	TGI [5] [µM]	TGI [6] [µM]	TGI [7] [µM]	TGI [8] [µM]	TGI [9] [µM]	TGI [10] [µM]	GI50 [6] [µM]	GI50 [1] [µM]	GI50 [7] [µM]	GI50 [2] [µM]	GI50 [8] [µM]	GI50 [9] [µM]	GI50 [4] [µM]	GI50 [5] [µM]	GI50 [10] [µM]	GI50 [3] [nM]
CCCCCCCCCCCCCCC1OC(=O)c2ccccc21 (centres undefined)	> 100	> 100	> 100	> 100	> 100	–	–	–	–	–	–	–	–	–	–	–	–	–	–	–
O=C1NC(=O)C2C(=O)NC(=O)C1C2(c1ccccc1)c1ccc(Cl)cc1 (centres undefined)	> 100	> 100	> 100	> 100	> 100	> 100	> 100	> 100	–	–	–	–	–	–	–	–	–	–	–	–
CN(C)CCNC(=O)c1cccc2nc3c(Cl)cccc3nc12	> 35.6	57	–	15.9	30.4	18.6	43.1	> 42.3	–	–	–	–	–	–	–	–	–	–	–	–
CN(C)c1ccc2c(c1)oc(=O)c1ccccc12	34.6	28.3	27.9	34.3	–	23.2	28.8	22.8	17.1	23.1	–	–	–	–	–	–	–	–	–	–
COC(=O)C(CC(=O)c1cc2c(cc1I)OCO2)Cc1cc(OC)c(OC)c(OC)c1I (centres undefined)	> 100	> 100	> 100	> 100	> 100	> 100	> 100	> 100	–	–	–	–	–	–	–	–	–	–	–	–
Cc1c(N2C(=O)/C(=C\c3ccccc3O)N=C2c2ccccc2)c(=O)n(-c2ccccc2)n1C	> 100	> 100	–	> 100	> 100	> 100	> 100	> 100	> 100	> 100	> 100	> 100	> 100	54.4	62.3	3.83	> 100	21	54	–
CCOC(=O)c1cc(-c2ccc([N+](=O)[O-])cc2)n(-c2ccc(C(=O)O)c(O)c2)c1C	12.7	19.1	> 100	14.4	11.7	24.7	–	3.43	13.7	14.6	11.5	3.38	–	5.66	1.64	3.58	3.81	3.55	3.62	2750
CC1CCC[P+](Cc2ccccc2)(c2ccccc2)CC1 (centres undefined)	> 100	> 100	> 100	> 100	–	78.2	> 100	35.9	–	–	–	–	–	–	–	–	–	–	–	–
COC(=O)c1c(OC)cccc1C(=O)O	> 100	> 100	> 100	–	> 100	> 100	> 100	> 100	–	–	–	–	–	–	–	–	–	–	–	–
O=C1Oc2cc3c(c4cccc1c24)OCN(c1ccc(Cl)cc1)C3	> 100	> 100	45.7	> 93.6	> 63.6	–	> 100	> 100	–	–	–	–	–	–	–	–	–	–	–	–
CCOC(=O)CCCO	> 100	> 100	> 100	> 100	> 100	> 100	> 100	> 100	–	–	–	–	–	–	–	–	–	–	–	–
ClCc1ccccc1CSc1ncnc2nc[nH]c12	–	> 60	> 60	> 60	> 60	–	> 60	> 60	> 60	> 60	–	–	> 60	> 60	> 60	53	> 60	> 60	> 60	> 60000
CCCCn1/c(=N/C(=S)N(C)C)ss/c1=N\C(=S)N(C)C	> 100	> 100	> 100	> 100	> 100	> 100	> 100	–	–	–	–	–	–	–	–	–	–	–	–	–
O=C(/C=C/c1cccs1)c1ccc(Cl)cc1	> 100	> 100	68	> 100	> 100	> 100	> 100	> 100	> 100	–	–	–	–	–	–	–	–	–	–	–
COc1ccc(N=Cc2cc(OC)c(OC)c(OC)c2)cc1	> 100	> 100	> 100	> 100	> 100	> 100	–	> 100	–	–	–	–	–	–	–	–	–	–	–	–
C#CC(C)(C)Oc1cc(O)c2c(=O)c3ccccc3n(C)c2c1	> 100	> 100	> 100	> 100	–	> 100	> 100	> 100	–	–	–	–	–	–	–	–	–	–	–	–
O=C1/C(=C/c2ccccc2)CN(C(=O)Oc2ccc(Cl)cc2)C/C1=C\c1ccccc1	16.6	10.1	6.39	4.26	3.28	16.5	2.99	4.14	–	–	–	–	–	–	–	–	–	–	–	–
CC(=O)OCCc1cccnc1/C=N/O	> 100	> 100	> 100	> 100	> 100	> 100	> 100	> 100	–	–	–	–	–	–	–	–	–	–	–	–
Cc1cc(C)nc(NS(=O)(=O)c2ccc(NC(=O)c3cccc4c(=O)c5ccccc5[nH]c34)cc2)n1	51.2	80.7	> 100	36	30.7	–	31.7	24	–	–	–	–	–	–	–	–	–	–	–	–
Clc1ccc(Cc2nc3cc4ccccc4cc3[nH]2)cc1	> 100	> 100	> 100	–	> 100	> 100	89.5	> 100	> 100	> 100	> 100	6.83	15.8	20	3.17	17.1	–	9.64	27.8	2210
O=C(O)c1cc(S(=O)(=O)N=NC=C2c3ccccc3N(O)c3ccccc32)ccc1O	> 100	> 100	86	30.9	> 100	64.2	37.9	32.3	–	–	–	–	–	–	–	–	–	–	–	–
CN(C)S(=O)(=O)Nc1ccccn1	> 100	> 100	–	> 100	> 100	> 100	> 100	> 100	> 100	> 100	–	–	–	–	–	–	–	–	–	–
C[Si](C)(C)c1ccc(CC2(Cc3ccc([Si](C)(C)C)cc3)CCNC2)cc1	5.22	13.7	48.1	5.05	3.62	3.41	4.43	3.35	–	–	–	–	–	–	–	–	–	–	–	–
